# PMC8906456, “Structural insights into the catalytic and inhibitory mechanisms of the flavin transferase FmnB in Listeria monocytogenes” (MedComm, 2022)
# Target: T1, FmnB (Listeria monocytogenes, UniProt A0A0H3GJF7)
# T1 construct: gene LMRG_02181; structure covers about residues 36-357
# T1 sequence (A0A0H3GJF7 20-360): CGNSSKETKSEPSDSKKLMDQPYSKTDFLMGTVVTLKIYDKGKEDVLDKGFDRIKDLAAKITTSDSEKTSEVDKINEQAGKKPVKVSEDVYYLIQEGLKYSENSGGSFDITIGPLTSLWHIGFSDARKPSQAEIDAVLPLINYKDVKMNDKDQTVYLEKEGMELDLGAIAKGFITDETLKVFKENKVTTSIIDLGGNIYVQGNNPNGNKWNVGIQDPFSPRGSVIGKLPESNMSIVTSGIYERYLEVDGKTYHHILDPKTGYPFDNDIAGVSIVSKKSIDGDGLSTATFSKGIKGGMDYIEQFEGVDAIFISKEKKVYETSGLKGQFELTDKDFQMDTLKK
# Experiment: inhibition of PplA FMNylation, in-gel flavin fluorescence
# Type: biochemical
# Conditions: 10 uM to 4 mM inhibitor; 100 uM FAD, 50 uM PplA, 15 mM Mg2+, 16 °C; competitive
compound,measurement,value
Nc1ncnc2c1ncn2[C@@H]1O[C@H](COP(=O)(O)O)[C@@H](O)[C@H]1O [AMP],"inhibition of PplA FMNylation, in-gel flavin fluorescence","the enzymatic assays indicated that AMP, ADP and ATP could inhibit FmnB activity"
Nc1ncnc2c1ncn2[C@@H]1O[C@H](COP(=O)(O)OP(=O)(O)O)[C@@H](O)[C@H]1O [ADP],"inhibition of PplA FMNylation, in-gel flavin fluorescence",ADP demonstrated a much stronger inhibitory ability against FmnB activity (Figure 4A)
Nc1ncnc2c1ncn2[C@@H]1O[C@H](COP(=O)(O)OP(=O)(O)OP(=O)(O)O)[C@@H](O)[C@H]1O [ATP],"inhibition of PplA FMNylation, in-gel flavin fluorescence","the enzymatic assays indicated that AMP, ADP and ATP could inhibit FmnB activity"
